Like-named read-outs stand apart in the source and are kept apart here.
Columns and labels:
HS 578T = settings: Breast, NCI database, cited from earlier work; for CC50: read-out: LC50 (the source's name)
MDA-N = settings: Breast, NCI database, cited from earlier work; for CC50: read-out: LC50 (the source's name)
786-0 = settings: 786-0, Renal, NCI database, cited from earlier work; for CC50: read-out: LC50 (the source's name)
LOX IMVI = settings: Melanoma, NCI database, cited from earlier work; for CC50: read-out: LC50 (the source's name)
MALME-3M = settings: Melanoma, NCI database, cited from earlier work; for CC50: read-out: LC50 (the source's name)
SK-MEL-2 = settings: SK-MEL-2, Melanoma, NCI database, cited from earlier work; for CC50: read-out: LC50 (the source's name)
UACC-257 = settings: UACC-257, Melanoma, NCI database, cited from earlier work; for CC50: read-out: LC50 (the source's name)
A549/ATCC = settings: Non-Small Cell Lung, NCI database, cited from earlier work; for CC50: read-out: LC50 (the source's name)
HOP-62 = settings: HOP-62, Non-Small Cell Lung, NCI database, cited from earlier work; for CC50: read-out: LC50 (the source's name)
NCI-H522 = settings: NCI-H522, Non-Small Cell Lung, NCI database, cited from earlier work; for CC50: read-out: LC50 (the source's name)
SF-268 = settings: SF-268, CNS, NCI database, cited from earlier work; for CC50: read-out: LC50 (the source's name)
SNB-75 = settings: SNB-75, CNS, NCI database, cited from earlier work; for CC50: read-out: LC50 (the source's name)
MOLT-4 [1] = settings: MOLT-4, Leukemia, NCI database, cited from earlier work; for CC50: read-out: LC50 (the source's name)
HL-60(TB) = settings: cited from earlier work; for GI50 / TGI: Leukemia, NCI database; for CC50: read-out: LC50, Leukemia, NCI database
SN12C = format: cell-based; settings: Renal, 48 h
MDA-MB-435 = settings: for CC50: read-out: LC50
BT-549 = settings: for CC50: read-out: LC50
M14 = settings: for CC50: read-out: LC50
UACC-62 = settings: for CC50: read-out: LC50
SF-539 = settings: for CC50: read-out: LC50
MOLT-4 [2] = settings: for CC50: read-out: LC50
RPMI-8226 = settings: for CC50: read-out: LC50
[3] = Homo sapiens, 48 h, read-out: LC50

Sc1ncnc2nc[nH]c12 [6-MP, 6-mercaptopurine]
CC50 (HS 578T): > 100 µM
GI50 (HS 578T): 15.7 µM
TGI (HS 578T): >100 µM
CC50 (MDA-N): > 100 µM
GI50 (MDA-N): 1.5 µM
TGI (MDA-N): >100 µM
GI50 (786-0): 1.87 µM
TGI (786-0): >100 µM
CC50 (786-0): > 100 µM
CC50 (LOX IMVI): > 100 µM
GI50 (LOX IMVI): 0.35 µM
TGI (LOX IMVI): >100 µM
CC50 (MALME-3M): > 100 µM
GI50 (MALME-3M): 4.28 µM
TGI (MALME-3M): >100 µM
GI50 (SK-MEL-2): 5.81 µM
TGI (SK-MEL-2): >100 µM
CC50 (SK-MEL-2): > 100 µM
GI50 (UACC-257): 14.2 µM
TGI (UACC-257): >100 µM
CC50 (UACC-257): > 100 µM
CC50 (A549/ATCC): > 100 µM
GI50 (A549/ATCC): 27.7 µM
TGI (A549/ATCC): >100 µM
GI50 (HOP-62): 1.69 µM
TGI (HOP-62): >100 µM
CC50 (HOP-62): > 100 µM
GI50 (NCI-H522): 1.67 µM
TGI (NCI-H522): >100 µM
CC50 (NCI-H522): > 100 µM
GI50 (SF-268): 4.03 µM
TGI (SF-268): >100 µM
CC50 (SF-268): > 100 µM
GI50 (SNB-75): 7.93 µM
TGI (SNB-75): >100 µM
CC50 (SNB-75): > 100 µM
GI50 (MOLT-4 [1]): 1.51 µM
TGI (MOLT-4 [1]): >100 µM
CC50 (MOLT-4 [1]): > 100 µM
GI50 (HL-60(TB)): 2.3 µM
TGI (HL-60(TB)): >100 µM
CC50 (HL-60(TB)): > 100 µM

Nc1nc2nc[nH]c2c(=S)[nH]1 [6-TG, 6-thioguanine]
CC50 (HS 578T): > 100 µM
GI50 (HS 578T): 7.26 µM
TGI (HS 578T): >100 µM
CC50 (MDA-N): > 100 µM
GI50 (MDA-N): 1.01 µM
TGI (MDA-N): 26.4 µM
GI50 (786-0): 0.82 µM
TGI (786-0): >100 µM
CC50 (786-0): > 100 µM
CC50 (LOX IMVI): > 100 µM
GI50 (LOX IMVI): 0.21 µM
TGI (LOX IMVI): 8.99 µM
CC50 (MALME-3M): > 100 µM
GI50 (MALME-3M): 1.34 µM
TGI (MALME-3M): 28.6 µM
GI50 (SK-MEL-2): 0.92 µM
TGI (SK-MEL-2): 10.5 µM
CC50 (SK-MEL-2): > 100 µM
GI50 (UACC-257): 1.98 µM
TGI (UACC-257): 95.7 µM
CC50 (UACC-257): > 100 µM
CC50 (A549/ATCC): > 100 µM
GI50 (A549/ATCC): 3.48 µM
TGI (A549/ATCC): >100 µM
GI50 (HOP-62): 0.73 µM
TGI (HOP-62): 28.4 µM
CC50 (HOP-62): > 100 µM
GI50 (NCI-H522): 0.91 µM
TGI (NCI-H522): 6.28 µM
CC50 (NCI-H522): > 100 µM
GI50 (SF-268): 1.14 µM
TGI (SF-268): >100 µM
CC50 (SF-268): > 100 µM
GI50 (SNB-75): 1.42 µM
TGI (SNB-75): 41.3 µM
CC50 (SNB-75): > 100 µM
GI50 (MOLT-4 [1]): 0.27 µM
TGI (MOLT-4 [1]): 15.4 µM
CC50 (MOLT-4 [1]): > 100 µM
GI50 (HL-60(TB)): 1.07 µM
TGI (HL-60(TB)): 17.8 µM
CC50 (HL-60(TB)): > 100 µM

CC(=O)C=CSc1ncnc2nc[nH]c12 [cis-AVTP, 6-(2-acetylvinylthio) purine]
GI50 (SN12C; Homo sapiens): 2.03 µM
CC50 (SN12C; Homo sapiens, read-out: LC50 (the source's name)): 28.1 µM
TGI (SN12C): 5.75 µM
TGI (NCI/ADR-RES; Breast, 48 h): 2.79 µM
GI50 (NCI/ADR-RES; Homo sapiens, 48 h): 0.51 µM
CC50 (NCI/ADR-RES; [3]): > 100 µM
GI50 (MDA-MB-435; Homo sapiens, MDA-MB-435, 48 h): 0.56 µM
CC50 (MDA-MB-435; Homo sapiens, MDA-MB-435, 48 h): 9.8 µM
TGI (MDA-MB-435; MDA-MB-435, Breast, 48 h): 2.75 µM
TGI (BT-549; BT-549, Breast, 48 h): 3.48 µM
GI50 (BT-549; Homo sapiens, BT-549, 48 h): 1.24 µM
CC50 (BT-549; Homo sapiens, BT-549, 48 h): 9.78 µM
GI50 (M14; Homo sapiens, M14, 48 h): 0.07 µM
CC50 (M14; Homo sapiens, M14, 48 h): 7.75 µM
TGI (M14; M14, Melanoma, 48 h): 1.89 µM
GI50 (UACC-62; Homo sapiens, UACC-62, 48 h): 0.23 µM
CC50 (UACC-62; Homo sapiens, UACC-62, 48 h): 5.88 µM
TGI (UACC-62; UACC-62, Melanoma, 48 h): 1.10 µM
GI50 (SF-539; Homo sapiens, SF-539, 48 h): 0.65 µM
CC50 (SF-539; Homo sapiens, SF-539, 48 h): 11.8 µM
TGI (SF-539; SF-539, CNS, 48 h): 2.86 µM
GI50 (MOLT-4 [2]; Homo sapiens, MOLT-4, 48 h): 0.36 µM
CC50 (MOLT-4 [2]; Homo sapiens, MOLT-4, 48 h): > 100 µM
TGI (MOLT-4 [2]; MOLT-4, Leukemia, 48 h): >100 µM
GI50 (RPMI-8226; Homo sapiens, RPMI-8226, 48 h): 0.12 µM
CC50 (RPMI-8226; Homo sapiens, RPMI-8226, 48 h): > 100 µM
TGI (RPMI-8226; RPMI-8226, Leukemia, 48 h): 1.67 µM
GI50 (SR; Homo sapiens, 48 h): 0.17 µM
CC50 (SR; [3]): > 100 µM
TGI (SR; Leukemia, 48 h): >100 µM

CC(=O)C=CSc1nc(N)nc2nc[nH]c12 [trans-AVTG, 6-(2-acetylvinylthio) guanine]
GI50 (SN12C): 2.84 µM
TGI (SN12C): 14.3 µM
GI50 (NCI/ADR-RES; Breast, 48 h): 0.35 µM
TGI (NCI/ADR-RES; Breast, 48 h): 7.40 µM
CC50 (NCI/ADR-RES; read-out: LC50, Breast, 48 h): > 100 µM
GI50 (MDA-MB-435; MDA-MB-435, Breast, 48 h): 1.04 µM
TGI (MDA-MB-435; MDA-MB-435, Breast, 48 h): 12.9 µM
CC50 (MDA-MB-435; MDA-MB-435, Breast, 48 h): 51.5 µM
GI50 (BT-549; BT-549, Breast, 48 h): 0.39 µM
TGI (BT-549; BT-549, Breast, 48 h): 5.75 µM
CC50 (BT-549; BT-549, Breast, 48 h): 43.1 µM
GI50 (M14; M14, Melanoma, 48 h): 0.45 µM
TGI (M14; M14, Melanoma, 48 h): 12.0 µM
CC50 (M14; M14, Melanoma, 48 h): 53.5 µM
GI50 (UACC-62; UACC-62, Melanoma, 48 h): 0.28 µM
TGI (UACC-62; UACC-62, Melanoma, 48 h): 0.93 µM
CC50 (UACC-62; UACC-62, Melanoma, 48 h): 24.9 µM
GI50 (SF-539; SF-539, CNS, 48 h): 0.81 µM
TGI (SF-539; SF-539, CNS, 48 h): 16.3 µM
CC50 (SF-539; SF-539, CNS, 48 h): > 100 µM
GI50 (MOLT-4 [2]; MOLT-4, Leukemia, 48 h): 0.7 µM
TGI (MOLT-4 [2]; MOLT-4, Leukemia, 48 h): >100 µM
CC50 (MOLT-4 [2]; MOLT-4, Leukemia, 48 h): > 100 µM
GI50 (RPMI-8226; RPMI-8226, Leukemia, 48 h): 0.24 µM
TGI (RPMI-8226; RPMI-8226, Leukemia, 48 h): 3.19 µM
CC50 (RPMI-8226; RPMI-8226, Leukemia, 48 h): > 100 µM
GI50 (SR; Leukemia, 48 h): 0.09 µM
TGI (SR; Leukemia, 48 h): 10.2 µM
CC50 (SR; read-out: LC50, Leukemia, 48 h): > 100 µM

Source: patent US20040023994A1 (priority 2002, published 2004)
